According to PMC10144058, “New Hybrid Scaffolds Based on 5-FU/Curcumin: Synthesis, Cytotoxic, Antiproliferative and Pro-Apoptotic Effect” (Pharmaceutics, 2023):
Where two headings read alike, the source gives them in different places.

Key:
Format in all cases: cell-based, human
SW620 cells [1] = test: Cell cycle analysis (PI, flow cytometry); details: SW620, treated with IC50 value, 48 h
Description: (§1) The method used for the recognition of cell cycle phases (G0/G1, S, G2/M) was based on staining with a fluorescent dye (propidium iodide—PI), as a direct relationship between fluorescence intensity and DNA content can be established. For this method, 250,000 cells/well were initially seeded in 6-well culture plates with an adherence period of 24 h at 37 °C in a 5% CO2 atmosphere. […] After treatment, cells were obtained by mechanical disaggregation, and the cell pellet was centrifuged and washed with a versene buffer. The cell pellet was fixed with 1.8 mL of cold 70% ethanol and kept at 4 °C overnight. Subsequently, two washes with a versene buffer were performed, and the pellet was resuspended in 300 µL of PBS containing 0.25 mg/mL of RNAsa and 0.1 mg/mL of PI. After a 30 min period of dark incubation, the fluorescence of 10,000 cells was analyzed using a FACS Canto II flow cytometer. The PI signal was analyzed with excitation at 488 nm using a sapphire laser, and fluorescence was detected at 610 nm. The data analysis was performed with FlowJo 10.8.1 software.

SW480 cells = test: Cell cycle analysis (PI, flow cytometry); details: SW480, treated with IC50 value, 48 h
Description: as §1

SW620 cells [2] = test: Antiproliferative activity (SRB, 0-8 days); details: for viability at 1.25 µM / viability at 20 µM: Homo sapiens, read-out: Cell Viability (%) ± SE; for viability at 1.25 µM: SW620, 1.25 µM; for viability at 20 µM: SW620, 20 µM
Description: For this experiment, the same colorimetric method (SRB) from the evaluation of cell viability was used, although with some modifications. Initially, 2500 cells per well were seeded in 96-well culture plates, and a 24 h adherence period was performed at 37 °C in a 5% CO2 atmosphere. […] For this assay, incubation periods of 0, 2, 4, 6, and 8 days were used, and the fixation, staining, and reading conditions were the same as those previously described for the cytotoxicity assay.

[3] = SW-620, 48 h, 2 days after plating
[4] = SW-620, 96 h, 4 days after plating
[5] = SW-620, 144 h, 6 days after plating
[6] = SW-620, 192 h, 8 days after plating

Question: With COc1cc(/C=C/C(=O)c2ccc(OCCCCCn3cc(Cn4cc(F)c(=O)[nH]c4=O)nn3)cc2)ccc1O [Compound 6d, (E)-5-fluoro-1-((1-(5-(4-(3-(4-hydroxy-3-methoxyphenyl)acryloyl)phenoxy)pentyl)-1H-1,2,3-triazol-4-yl)methyl)pyrimidine-2,4(1H,3H)-dione] as the compound, how does the “Cell cycle distribution, G0/G1” value (SW620 cells [1]) read?
Answer: The value was 4.4%.

Question: What about the “Cell cycle distribution, G2/M” value (SW620 cells [1]) of the same compound?
Answer: The value was 11.0%.

Question: And the “Cell cycle distribution, S Phase” value (SW620 cells [1])?
Answer: Its value is 24.7%.

Question: What about the “Cell cycle distribution, G0/G1” value (SW480 cells) of the same compound?
Answer: The value was 42.9%.

Question: What about the “Cell cycle distribution, G2/M” value (SW480 cells) of the same compound?
Answer: The value was 10.1%.

Question: What about the “Cell cycle distribution, S Phase” value (SW480 cells) of the same compound?
Answer: The value was 20.0%.

Question: What about the “Cell cycle distribution, Sub G0/G1” value (SW480 cells) of the same compound?
Answer: The value was 24.1%.

Question: What about the viability at 1.25 µM (SW620 cells [2]; [3]) of the same compound?
Answer: Its viability at 1.25 µM is 91 ± 2.85%.

Question: And the viability at 20 µM (SW620 cells [2]; [3])?
Answer: Its viability at 20 µM is 42.5 ± 4.57%.

Question: What about the viability at 1.25 µM (SW620 cells [2]; [4]) of the same compound?
Answer: The viability at 1.25 µM was 85.2 ± 3.23%.

Question: What about the viability at 20 µM (SW620 cells [2]; [4]) of the same compound?
Answer: The viability at 20 µM was 7.1 ± 0.95%.

Question: What about the viability at 1.25 µM (SW620 cells [2]; [5]) of the same compound?
Answer: The viability at 1.25 µM was 67.3 ± 2.32%.

Question: What about the viability at 20 µM (SW620 cells [2]; [5]) of the same compound?
Answer: Its viability at 20 µM is 0%.

Question: And the viability at 1.25 µM (SW620 cells [2]; [6])?
Answer: Its viability at 1.25 µM is 54.4 ± 2.76%.

Question: And the viability at 20 µM (SW620 cells [2]; [6])?
Answer: Its viability at 20 µM is 0%.

Question: And the “inhibition percentages (decrease in cell viability)” value (SW620 cells [2]; SW620, from 5 µM, day 2)?
Answer: The value was “higher than 30%”.
